Results from PubChem BioAssay AID256 (DTP/NCI, 2004).
Where “and” joins values, the source holds several entries; their conditions need not be identical. Equal values may be shown once. Inconclusive results and toxic doses are left out. Rule for the calls: active = survival T/C of 150% or more; inactive = T/C below 125% in these data. Non-standard residues stand in square brackets, D forms with d. Residues, ends and D or L forms follow the SMILES beside them. ξ: configuration not given here. *: point of attachment. ξL = CC(C)CC(N)C(=O)O; ClAc = O=C(CCl)*

Tested on: CD2F1 mice, L1210 leukemia ip, survival T/C
Assay: NCI In Vivo Anticancer Drug Screen. Data for tumor model L1210 Leukemia (intraperitoneal) in CD2F1 (CDF1) mice
Details: higher = longer survival
Method in brief: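 Ratio T/C, where T is the treated-group value and C the vehicle-dosed control value, from mice implanted with a transplantable tumor.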

[1] = endpoint: mean survival time, dose: 100.0 mg/kg/injection, schedule: Q01DX001 (ip), vehicle: saline
[2] = endpoint: mean survival time, dose: 200.0 mg/kg/injection, schedule: Q01DX001 (ip), vehicle: saline
[3] = endpoint: mean survival time, dose: 400.0 mg/kg/injection, schedule: Q01DX001 (ip), vehicle: saline
[4] = endpoint: mean survival time, dose: 100.0 mg/kg/injection, schedule: Q01DX001 (ip), vehicle: saline with Tween-80
[5] = endpoint: mean survival time, dose: 100.0 mg/kg/injection, schedule: Q01DX009 (ip), vehicle: saline with Tween-80
[6] = endpoint: mean survival time, dose: 200.0 mg/kg/injection, schedule: Q01DX001 (ip), vehicle: saline with Tween-80
[7] = endpoint: mean survival time, dose: 200.0 mg/kg/injection, schedule: Q01DX009 (ip), vehicle: saline with Tween-80
[8] = endpoint: mean survival time, dose: 400.0 mg/kg/injection, schedule: Q01DX001 (ip), vehicle: saline with Tween-80
[9] = endpoint: mean survival time, dose: 400.0 mg/kg/injection, schedule: Q01DX009 (ip), vehicle: saline with Tween-80
[10] = endpoint: mean survival time, dose: 50.0 mg/kg/injection, schedule: Q01DX009 (ip), vehicle: saline with Tween-80
[11] = endpoint: mean survival time, dose: 100.0 mg/kg/injection, schedule: Q04DX003 (ip), vehicle: saline with Tween-80
[12] = endpoint: mean survival time, dose: 25.0 mg/kg/injection, schedule: Q01DX009 (ip), vehicle: saline with Tween-80
[13] = endpoint: mean survival time, dose: 200.0 mg/kg/injection, schedule: Q04DX003 (ip), vehicle: saline with Tween-80
[14] = endpoint: mean survival time, dose: 400.0 mg/kg/injection, schedule: Q04DX003 (ip), vehicle: saline with Tween-80

Measured: T/C

C/C(=N\O)c1ccccn1
inactive: endpoint: mean survival time, dose: 25.0 mg/kg/injection, schedule: Q01DX009 (ip), vehicle: Klucel (hydroxypropylcellulose) (HPC) 95 % of control | endpoint: mean survival time, dose: 50.0 mg/kg/injection, schedule: Q01DX009 (ip), vehicle: Klucel (hydroxypropylcellulose) (HPC) 100 % of control | endpoint: mean survival time, dose: 100.0 mg/kg/injection, schedule: Q01DX009 (ip), vehicle: Klucel (hydroxypropylcellulose) (HPC) 90 % of control | endpoint: mean survival time, dose: 200.0 mg/kg/injection, schedule: Q01DX009 (ip), vehicle: Klucel (hydroxypropylcellulose) (HPC) 95 % of control | endpoint: mean survival time, dose: 400.0 mg/kg/injection, schedule: Q01DX009 (ip), vehicle: Klucel (hydroxypropylcellulose) (HPC) 105 % of control

O=[N+]([O-])c1cccc(N=C(c2ccccc2)N(O)c2ccccc2)c1
inactive: [1] 100 % of control | endpoint: mean survival time, dose: 100.0 mg/kg/injection, schedule: Q04DX003 (ip), vehicle: saline 102 % of control | [2] 100 % of control | endpoint: mean survival time, dose: 200.0 mg/kg/injection, schedule: Q04DX003 (ip), vehicle: saline 97 % of control | [3] 100 % of control | endpoint: mean survival time, dose: 400.0 mg/kg/injection, schedule: Q04DX003 (ip), vehicle: saline 103 % of control

COC(=O)C1C2CC(OS(=O)(=O)c3ccc(C)cc3)C(C2)C1C(=O)OC (configuration not stated)
inactive: [4] 93 % of control | [5] 98 % of control | [6] 95 % of control | [7] 91 % of control | [8] 92 % of control | [9] 95 % of control

CS(=O)(=O)C([N+](=O)[O-])S(C)(=O)=O
inactive: [1] 101 % of control | [2] 101 % of control | [3] 97 % of control

c1cc[n+](Cc2ccc3ccccc3c2)c(C2OCCO2)c1
inactive: endpoint: mean survival time, dose: 5.0 mg/kg/injection, schedule: Q01DX009 (ip), vehicle: saline 102 % of control | endpoint: mean survival time, dose: 10.0 mg/kg/injection, schedule: Q01DX009 (ip), vehicle: saline 102 % of control | endpoint: mean survival time, dose: 20.0 mg/kg/injection, schedule: Q01DX009 (ip), vehicle: saline 105 % of control

COC1C(CO)OC(n2c3c(Cl)cccc3c3c4c(c5c6cccc(Cl)c6[nH]c5c32)C(=O)NC4=O)C(O)C1O (configuration not stated)
inactive: endpoint: median survival time, dose: 12.5 mg/kg/injection, schedule: Q01DX009 (ip), vehicle: distilled water + Tween-80 105 % of control and 112 % of control | endpoint: median survival time, dose: 25.0 mg/kg/injection, schedule: Q01DX009 (ip), vehicle: distilled water + Tween-80 114 % of control | endpoint: median survival time, dose: 36.0 mg/kg/injection, schedule: Q01DX009 (ip), vehicle: distilled water + Tween-80 113 % of control | endpoint: median survival time, dose: 50.0 mg/kg/injection, schedule: Q01DX009 (ip), vehicle: distilled water + Tween-80 112 % of control | endpoint: median survival time, dose: 60.0 mg/kg/injection, schedule: Q01DX009 (ip), vehicle: distilled water + Tween-80 115 % of control | endpoint: median survival time, dose: 100.0 mg/kg/injection, schedule: Q01DX009 (ip), vehicle: distilled water + Tween-80 121 % of control and 103 % of control | endpoint: median survival time, dose: 166.7 mg/kg/injection, schedule: Q01DX009 (ip), vehicle: distilled water + Tween-80 122 % of control | endpoint: median survival time, dose: 200.0 mg/kg/injection, schedule: Q01DX009 (ip), vehicle: distilled water + Tween-80 95 % of control

COc1ccc2c3c(ccc2c1)C1CCC(=O)C1(C)CC3 (configuration not stated)
inactive: [5] 102 % of control | [7] 96 % of control | [9] 98 % of control

O=C(Nc1cc(S(=O)(=O)O)cc2cc(S(=O)(=O)O)c(N=Nc3ccc([As](=O)(O)O)cc3)c(O)c12)c1ccc([N+](=O)[O-])cc1
inactive: endpoint: mean survival time, dose: 12.5 mg/kg/injection, schedule: Q04DX002 (ip), vehicle: saline 101 % of control | endpoint: mean survival time, dose: 25.0 mg/kg/injection, schedule: Q04DX002 (ip), vehicle: saline 94 % of control | endpoint: mean survival time, dose: 50.0 mg/kg/injection, schedule: Q04DX002 (ip), vehicle: saline 94 % of control

O=C(Nc1ccc(C2=NCCN2)cc1)Nc1cccc(NC(=O)Nc2ccc(C3=NCCN3)cc2)c1
inactive: endpoint: mean survival time, dose: 1.8 mg/kg/injection, schedule: Q01DX008 (iv), vehicle: other 103 % of control | endpoint: mean survival time, dose: 3.75 mg/kg/injection, schedule: Q01DX008 (iv), vehicle: other 103 % of control

CNCCc1ccc(O)c(O)c1
inactive: endpoint: mean survival time, dose: 300.0 mg/kg/injection, schedule: Q01DX001 (ip), vehicle: saline 100 % of control

Cc1cc(O)c(N=Nc2ccc(Br)cc2)cc1C
inactive: [10] 97 % of control | [5] 93 % of control | [7] 97 % of control

O=S(=O)(F)c1ccccc1
inactive: endpoint: mean survival time, dose: 25.0 mg/kg/injection, schedule: Q04DX003 (ip), vehicle: saline with Tween-80 95 % of control | endpoint: mean survival time, dose: 50.0 mg/kg/injection, schedule: Q04DX003 (ip), vehicle: saline with Tween-80 100 % of control | [11] 95 % of control and 97 % of control

CC(=O)N(O)CCCCCNC(=O)CCC(=O)N(O)CCCCCNC(=O)CCC(=O)N(O)CCCCCN
inactive: endpoint: mean survival time, dose: 125.0 mg/kg/injection, schedule: Q03HX024 (ip), vehicle: water 102 % of control | endpoint: mean survival time, dose: 188.0 mg/kg/injection, schedule: Q03HX024 (ip), vehicle: water 97 % of control | endpoint: mean survival time, dose: 280.0 mg/kg/injection, schedule: Q03HX024 (ip), vehicle: water 104 % of control

CCCCOS(=O)(=O)c1ccc(Cl)c([N+](=O)[O-])c1
inactive: [12] 102 % of control | [10] 100 % of control | [5] 91 % of control | [11] 96 % of control | [13] 98 % of control | [14] 91 % of control

CC(C)CC(NC(=O)CCl)C(=O)NCC(=O)O (configuration not stated) (ClAc-[ξL]-Gly-OH)
inactive: [12] 96 % of control | [10] 96 % of control | [5] 94 % of control

C#CC1(NC(=O)NC(C)(C)C)CCCCC1
inactive: [5] 93 % of control | [7] 86 % of control

O=C(Nn1c(=O)c(=O)oc2ccccc21)C(F)(F)F
inactive: [11] 96 % of control | [13] 94 % of control

FC(F)(F)C(F)(F)CI
inactive: [4] 105 % of control | [6] 98 % of control | [8] 94 % of control

Cc1cc(C)c(O)c(C)c1.[Hg]
inactive: endpoint: mean survival time, dose: 1.56 mg/kg/injection, schedule: Q01DX001 (ip), vehicle: Klucel (hydroxypropylcellulose) (HPC) 98 % of control | endpoint: mean survival time, dose: 3.13 mg/kg/injection, schedule: Q01DX001 (ip), vehicle: Klucel (hydroxypropylcellulose) (HPC) 92 % of control | endpoint: mean survival time, dose: 6.25 mg/kg/injection, schedule: Q01DX001 (ip), vehicle: Klucel (hydroxypropylcellulose) (HPC) 103 % of control

CCOc1ccccc1/C=C1\N=C(c2cc(OC)c(OC)c(OC)c2)OC1=O
inactive: endpoint: mean survival time, dose: 100.0 mg/kg/injection, schedule: Q04DX002 (ip), vehicle: saline with Tween-80 106 % of control | endpoint: mean survival time, dose: 200.0 mg/kg/injection, schedule: Q04DX002 (ip), vehicle: saline with Tween-80 100 % of control | endpoint: mean survival time, dose: 400.0 mg/kg/injection, schedule: Q04DX002 (ip), vehicle: saline with Tween-80 95 % of control

O=C(O)CS(=O)c1ccc(Cl)cc1 (configuration not stated)
inactive: endpoint: mean survival time, dose: 50.0 mg/kg/injection, schedule: Q01DX001 (ip), vehicle: saline with Tween-80 104 % of control | [4] 95 % of control | [6] 88 % of control

c1ccc(Sc2cccc3ccccc23)cc1
inactive: [11] 102 % of control | [13] 93 % of control | [14] 91 % of control
